Test results: ChEMBL document CHEMBL1133175, “QSAR analysis of Delta(8)-THC analogues: relationship of side-chain conformation to cannabinoid receptor affinity and pharmacological potency” (J Med Chem, 2000)
pKd: −log10 of the molar value.

Experiments:
Cannabinoid receptor 1 [1] = target: T1, Cannabinoid receptor 1 (Homo sapiens, UniProt P21554); assay: Tested for binding affinity against Cannabinoid receptor 1 (CB1).
Cannabinoid receptor 1 [2] = target: T1, Cannabinoid receptor 1; assay: Binding affinity against Cannabinoid receptor 1.
Cannabinoid receptor 1 [3] = target: T1, Cannabinoid receptor 1; assay: Tested for binding affinity against Cannabinoid receptor 1 (CB1)

T1 sequence (P21554 whole entry): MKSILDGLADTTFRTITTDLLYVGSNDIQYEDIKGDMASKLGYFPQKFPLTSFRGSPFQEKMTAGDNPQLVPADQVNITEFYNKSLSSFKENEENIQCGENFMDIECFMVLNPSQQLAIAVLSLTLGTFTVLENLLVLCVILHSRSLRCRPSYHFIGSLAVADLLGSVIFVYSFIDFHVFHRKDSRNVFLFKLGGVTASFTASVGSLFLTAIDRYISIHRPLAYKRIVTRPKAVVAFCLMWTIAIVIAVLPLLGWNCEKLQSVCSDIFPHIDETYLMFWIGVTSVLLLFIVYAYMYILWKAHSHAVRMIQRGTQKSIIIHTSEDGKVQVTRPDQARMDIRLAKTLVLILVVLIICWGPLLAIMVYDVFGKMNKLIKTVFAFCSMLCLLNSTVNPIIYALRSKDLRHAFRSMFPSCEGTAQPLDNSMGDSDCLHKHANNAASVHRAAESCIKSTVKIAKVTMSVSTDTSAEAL

| Structure (SMILES) | pKd (Cannabinoid receptor 1 [2]) | further results |
| --- | --- | --- |
| CC1=CCC2C(C1)c1c(O)cc(C/C=C/CCCC[N+](=O)[O-])cc1OC2(C)C (stereo not given) |  | pKd (Cannabinoid receptor 1 [1]): 8.45 |
| CCCCCCC(C)(C)c1cc(O)c2c(c1)OC(C)(C)C1CC=C(C)CC21 (stereo not given) |  | pKd (Cannabinoid receptor 1 [1]): 9.11 |
| CC1=CCC2C(C1)c1c(O)cc(C/C=C/CCCC#N)cc1OC2(C)C (stereo in doubt; 29) | 9.11 |  |
| CC1=CCC2C(C1)c1c(O)cccc1OC2(C)C (stereo not given) | 7.35 |  |
| CC(=O)NCCC/C=C/Cc1cc(O)c2c(c1)OC(C)(C)C1CC=C(C)CC21 (stereo not given) |  | pKd (Cannabinoid receptor 1 [1]): 7.78 |
| C#CCCCC#CCc1cc(O)c2c(c1)OC(C)(C)C1CC=C(C)CC21 (stereo not given) |  | pKd (Cannabinoid receptor 1 [3]): 8.33 |
| COCCC/C=C/Cc1cc(O)c2c(c1)OC(C)(C)C1CC=C(C)CC21 (stereo not given) |  | pKd (Cannabinoid receptor 1 [1]): 7.94 |
| CC1=CCC2C(C1)c1c(O)cc(CC#CC(C)Br)cc1OC2(C)C (stereo not given) |  | pKd (Cannabinoid receptor 1 [1]): 7.60 |
| CC1=CCC2C(C1)c1c(O)cc(CC#CCCC#N)cc1OC2(C)C (stereo not given) | 7.51 |  |
| CCCCC#CCCc1cc(O)c2c(c1)OC(C)(C)C1CC=C(C)CC21 (stereo not given) | 8.05 |  |
| CCCCCC#CCc1cc(OC)c2c(c1)OC(C)(C)C1CC=C(C)CC21 (stereo not given) | 6.72 |  |
| CCCCCCC#CCc1cc(O)c2c(c1)OC(C)(C)C1CC=C(C)CC21 (stereo not given) | 8.43 |  |
| C#CCCc1cc(O)c2c(c1)OC(C)(C)C1CC=C(C)CC21 (stereo not given) | 6.44 |  |
| CC1=CCC2C(C1)c1c(O)cc(C/C=C/CCCC#N)cc1OC2(C)C (stereo in doubt; 30) | 8.90 |  |
| CCCCCC#Cc1cc(O)c2c(c1)OC(C)(C)C1CC=C(C)CC21 (stereo not given) |  | pKd (Cannabinoid receptor 1 [1]): 7.44 |
| CC1=CCC2C(C1)c1c(O)cc(C=C=CCCCC(=O)O)cc1OC2(C)C (stereo not given) | 5.50 |  |
| CC1=CCC2C(C1)c1c(O)cc(C/C=C/CCCO)cc1OC2(C)C (stereo not given) |  | pKd (Cannabinoid receptor 1 [1]): 7.27 |
| CC1=CCC2C(C1)c1c(O)cc(CC#CCCC[N+](=O)[O-])cc1OC2(C)C (stereo not given) | 8.27 |  |

| Structure (SMILES) | pKd (Cannabinoid receptor 1 [2]) | further results |
| --- | --- | --- |
| CC1=CCC2C(C1)c1c(O)cc(CC#CCBr)cc1OC2(C)C (stereo not given) | 6.84 |  |
| CCCCC/C=C/c1cc(O)c2c(c1)OC(C)(C)C1CC=C(C)CC21 (stereo not given) | 9.07 |  |
| CC(=O)NCCC#CCc1cc(O)c2c(c1)OC(C)(C)C1CC=C(C)CC21 (stereo not given) |  | pKd (Cannabinoid receptor 1 [1]): 6.51 |
| CCCCCC#CCc1cc(O)c2c(c1)OC(C)(C)C1CC=C(C)CC21 (stereo not given) |  | pKd (Cannabinoid receptor 1 [3]): 8.31 |
| CCCC/C=C/CCc1cc(O)c2c(c1)OC(C)(C)C1CC=C(C)CC21 (stereo not given) | 8.47 |  |
| COC(=O)C#CCCc1cc(O)c2c(c1)OC(C)(C)C1CC=C(C)CC21 (stereo not given) | < 5.00 |  |
| CC1=CCC2C(C1)c1c(O)cc(CC#CCCCBr)cc1OC2(C)C (stereo not given) | 8.92 |  |
| CCC/C=C/CCCc1cc(O)c2c(c1)OC(C)(C)C1CC=C(C)CC21 (stereo not given) | 7.96 |  |
| CC1=CCC2C(C1)c1c(O)cc(C#CCCCC#N)cc1OC2(C)C (stereo not given) | 6.98 |  |
| CCCC#CCc1cc(O)c2c(c1)OC(C)(C)C1CC=C(C)CC21 (stereo not given) | 7.96 |  |
| CC1=CCC2C(C1)c1c(O)cc(CC#CCCO)cc1OC2(C)C (stereo not given) |  | pKd (Cannabinoid receptor 1 [1]): 6.35 |
| CC1=CCC2C(C1)c1c(O)cc(C/C=C/CCCBr)cc1OC2(C)C (stereo not given) | 8.78 |  |
| C#CCCCC#Cc1cc(O)c2c(c1)OC(C)(C)C1CC=C(C)CC21 (stereo not given) | 6.34 |  |
| CCCC#CCCCc1cc(O)c2c(c1)OC(C)(C)C1CC=C(C)CC21 (stereo not given) | 7.72 |  |
| CCCCC/C=C/Cc1cc(O)c2c(c1)OC(C)(C)C1CC=C(C)CC21 (stereo not given) | 8.50 |  |
| COC(=O)C#CCc1cc(O)c2c(c1)OC(C)(C)C1CC=C(C)CC21 (stereo not given) | 6.14 |  |
| CC1=CCC2C(C1)c1c(O)cc(C/C=C/CCCF)cc1OC2(C)C (stereo not given) |  | pKd (Cannabinoid receptor 1 [1]): 7.68 |
